Results from patent US20210070748A1, “INHIBITORS OF BRUTONS TYROSINE KINASE” (Pharmacyclics LLC, priority 2015, published 2021).

target: T1, BTK-WT (Homo sapiens, UniProt Q06187); experiment: Btk in vitro inhibitory activity (one of Method A TR-FRET, Method B electrophoretic mobility shift, Method C radiometric filter binding); format: biochemical; details: E compounds, Table 17; read-out: IC50 BTK-WT
T1 construct: purified from insect cells as a full-length construct containing an N-terminal 6X-His tag; His6 (N); made in house; host or cells: insect cells (baculovirus Sf21 in Method B)
T1 sequence (Q06187 whole entry): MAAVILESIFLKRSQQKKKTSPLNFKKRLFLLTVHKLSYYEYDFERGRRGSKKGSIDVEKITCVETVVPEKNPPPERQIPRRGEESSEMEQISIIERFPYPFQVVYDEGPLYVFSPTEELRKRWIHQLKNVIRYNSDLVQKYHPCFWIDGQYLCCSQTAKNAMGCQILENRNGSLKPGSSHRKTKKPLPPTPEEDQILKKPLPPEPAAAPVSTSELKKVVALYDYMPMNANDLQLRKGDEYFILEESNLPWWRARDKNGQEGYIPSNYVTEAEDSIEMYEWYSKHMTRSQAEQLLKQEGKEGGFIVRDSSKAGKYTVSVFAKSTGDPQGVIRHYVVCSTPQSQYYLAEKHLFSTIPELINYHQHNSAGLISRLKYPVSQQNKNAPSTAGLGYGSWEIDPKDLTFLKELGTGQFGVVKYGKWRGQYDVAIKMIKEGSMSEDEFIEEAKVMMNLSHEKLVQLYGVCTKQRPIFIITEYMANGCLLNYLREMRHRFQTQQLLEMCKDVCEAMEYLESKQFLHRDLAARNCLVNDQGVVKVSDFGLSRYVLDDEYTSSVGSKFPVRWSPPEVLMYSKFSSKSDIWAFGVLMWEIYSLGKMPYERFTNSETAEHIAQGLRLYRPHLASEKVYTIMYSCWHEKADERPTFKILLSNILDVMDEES

| SMILES | IC50 |
| --- | --- |
| Cn1cc(Nc2nc(N3CCC4CCN(C(=O)c5ccc(C6CC6)cc5)C4C3)cnc2C(N)=O)cn1 (centres unmarked) [Example E-141, 5-(1-(4-cyclopropylbenzoyl)octahydro-6H-pyrrolo[2,3-c]pyridin-6-yl)-3-((1-methyl-3H-pyrazol-4-yl)amino)pyrazine-2-carboxamide] | 0.1 to 1 µM |
| C[C@@H]1[C@H](NC(=O)c2ccc(C3CC3)cc2)CCCN1c1cnc(C(N)=O)c(Nc2cnc(C3CCOCC3)nc2)n1 [Example E-144, 5-((2R,3R)-3-(4-cyclopropylbenzamido)-2-methylpiperidin-1-yl)-3-((2-(tetrahydro-2H-pyran-4-yl)pyrimidin-5-yl)amino)pyrazine-2-carboxamide] | 0.01 to 0.1 µM |
| C=CC(=O)N1CCC[C@@H](Nc2nnc(C(N)=O)c(Nc3ccc(C4CCN(C(=O)CC)CC4)cc3)n2)C1 [Example E-45, (R)-3-(1-acryloylpiperidin-3-ylamino)-5-(4-(1-propionylpiperidin-4-yl)phenylamino)-1,2,4-triazine-6-carboxamide] | ≤ 0.01 µM |
| C=CC(=O)N1CCC[C@@H](Nc2nnc(C(N)=O)c(Nc3cc(C)ns3)n2)C1 [Example E-11, (R)-3-(1-acryloylpiperidin-3-ylamino)-5-(3-methylisothiazol-5-ylamino)-1,2,4-triazine-6-carboxamide] | ≤ 0.01 µM |
| C[C@@H]1[C@H](NC(=O)c2cc(C(C)(C)C)nn2C)CCCN1c1cnc(C(N)=O)c(Nc2cnn(C)c2)n1 [Example E-146, 5-((2R,3R)-3-(3-(tert-butyl)-1-methyl-1H-pyrazole-5-carboxamido)-2-methylpiperidin-1-yl)-3-((1-methyl-1H-pyrazol-4-yl)amino)pyrazine-2-carboxamide] | ≤ 0.01 µM |
| Cn1cc(Nc2nc(N3CCCC(C)(NC(=O)c4ccc(C5CC5)cc4)C3)cnc2C(N)=O)cn1 (centres unmarked) [Example E-150, 5-(3-(4-cyclopropylbenzamido)-3-methylpiperidin-1-yl)-3-((1-methyl-1H-pyrazol-4-yl)amino)pyrazine-2-carboxamide] | 0.1 to 1 µM |
| Cc1nc(-c2ccc(C(=O)N[C@@H]3CCCN(c4cnc(C(N)=O)c(Nc5cnn(C)c5)n4)[C@@H]3C)cc2)cs1 [Example E-155, 3-((1-methyl-1H-pyrazol-4-yl)amino)-5-((2R,3R)-2-methyl-3-(4-(2-methylthiazol-4-yl)benzamido)piperidin-1-yl)pyrazine-2-carboxamide] | ≤ 0.01 µM |
| C[C@@H]1[C@H](NC(=O)c2noc(C(C)(C)C)n2)CCCN1c1cnc(C(N)=O)c(Nc2cnn(C)c2)n1 [Example E-149, 5-(tert-butyl)-N-((2R,3R)-1-(5-carbamoyl-6-((1-methyl-1H-pyrazol-4-yl)amino)pyrazin-2-yl)-2-methylpiperidin-3-yl)-1,2,4-oxadiazole-3-carboxamide] | 0.1 to 1 µM |
| C[C@@H]1[C@H](NC(=O)c2ccc(C3CC3)cc2)CCCN1c1cnc(C(N)=O)c(Nc2ccc(N3CCN(C)C[C@@H]3C)cc2)n1 [Example E-148, 5-((2R,3R)-3-(4-cyclopropylbenzamido)-2-methylpiperidin-1-yl)-3-((4-((S)-2,4-dimethylpiperazin-1-yl)phenyl)amino)pyrazine-2-carboxamide] | ≤ 0.01 µM |
| C=CC(=O)N[C@@H]1CCCN(c2cnc(C(N)=O)c(Nc3cc(C)ns3)n2)[C@@H]1C [Example E-97, 5-((2R,3R)-3-acrylamido-2-methylpiperidin-1-yl)-3-(3-methylisothiazol-5-ylamino)pyrazine-2-carboxamide] | ≤ 0.01 µM |
| Cc1cc(Nc2nc(N3CC[C@H](O)[C@@H](N4CCC[C@@H](Nc5cc(Cl)cc(C(F)(F)F)c5)C4=O)C3)nnc2C(N)=O)sn1 [Example E-10, 3-((3R,3'S,4'S)-3-(3-chloro-5-(trifluoromethyl)phenylamino)-4′-hydroxy-2-oxo-1,3′-bipiperidin-1-yl)-5-(3-methylisothiazol-5-ylamino)-1,2,4-triazine-6-carboxamide] | ≤ 0.01 µM |
| CC(C)c1ccc(Nc2nc(N3CCC[C@@H](N4CCC[C@@H](Nc5cc(Cl)cc(C(F)(F)F)c5)C4=O)C3)nnc2C(N)=O)cc1 [Example E-128, 3-((3R,3′R)-3-((3-chloro-5-(trifluoromethyl)phenyl)amino)-2-oxo-[1,3′-bipiperidin]-1′-yl)-5-((4-isopropylphenyl)amino)-1,2,4-triazine-6-carboxamide] | 0.1 to 1 µM |

same assay, conditions: Table 13, A compounds; read-out: IC50 BTK-WT

| SMILES | IC50 |
| --- | --- |
| C[C@@H]1[C@H](NC(=O)c2ccc(C3CC3)cc2F)CCCN1c1cnc(C(N)=O)c(Nc2ccc(N3CCN(C)CC3)nc2)n1 [Example A-177, 5-[(2R,3R)-3-(4-cyclopropyl-2-fluorobenzamido)-2-methylpiperidin-1-yl]-3-{[6-(4-methylpiperazin-1-yl)pyridin-3-yl]amino}pyrazine-2-caoxamide] | ≤ 0.01 µM |
| C[C@@H]1[C@H](NC(=O)c2ccc(C3CC3)cc2F)CCCN1c1cnc(C(N)=O)c(Nc2ccc(C3(C)CCN(C4CC4)CC3)cc2)n1 [Example A-174, 5-[(2R,3R)-3-(4-cyclopropyl-2-fluorobenzamido)-2-methylpiperidin-1-yl]-3-{[4-(1-cyclopropyl-4-methylpiperidin-4-yl)phenyl]amino}pyrazine-2-carboxamide] | ≤ 0.01 µM |
| CC(C)N1CCN(c2ccc(Nc3nc(N4CCC[C@@H](NC(=O)c5ccc(C6CC6)cc5F)[C@H]4C)cnc3C(N)=O)cc2)CC1 [Example A-149, 5-[(2R,3R)-3-(4-cyclopropyl-2-fluorobenzamido)-2-methylpiperidin-1-yl]-3-({4-[4-(propan-2-yl)piperazin-1-yl]phenyl}amino)pyrazine-2-carboxamide] | ≤ 0.01 µM |
| C[C@@H]1[C@H](NC(=O)c2ccc(C3CC3)c(Cl)c2)CCCN1c1cnc(C(N)=O)c(Nc2ccc(N3CCN(C)CC3)cc2)n1 [Example A-189, 5-((2R,3R)-3-(3-chloro-4-cyclopropylbenzamido)-2-methylpiperidin-1-yl)-3-(4-(4-methylpiperazin-1-yl)phenylamino)pyrazine-2-carboxamide] | ≤ 0.01 µM |
| CC1(c2ccc(Nc3nc(N4CCC[C@@H](n5ccc6cc(C7CC7)ccc6c5=O)C4)cnc3C(N)=O)cc2)CCN(C2CCCC2)CC1 [Example A-141, 3-{[4-(1-cyclopentyl-4-methylpiperidin-4-yl)phenyl]amino}-5-[(3R)-3-(6-cyclopropyl-1-oxo-1,2-dihydroisoquinolin-2-yl)piperidin-1-yl]pyrazine-2-carboxamide] | ≤ 0.01 µM |
| Cc1cc(Nc2nc(N3CCC[C@@H](n4ccc5cc(C6CC6)ccc5c4=O)C3)cnc2C(N)=O)sn1 [Example A-107, 5-[(3R)-3-(6-cyclopropyl-1-oxo-1,2-dihydroisoquinolin-2-yl)piperidin-1-yl]-3-[(3-methyl-1,2-thiazol-5-yl)amino]pyrazine-2-carboxamide] | ≤ 0.01 µM |
| Cn1cc(Nc2nc(N3CCC[C@@H](n4ccc5cc(C6CC6)ccc5c4=O)C3)cnc2C(N)=O)cn1 [Example A-167, 5-[(3R)-3-(6-cyclopropyl-1-oxo-1,2-dihydroisoquinolin-2-yl)piperidin-1-yl]-3-[(1-methyl-1H-pyrazol-4-yl)amino]pyrazine-2-carboxamide] | ≤ 0.01 µM |
| C[C@@H]1[C@H](NC(=O)c2ccc(C3CC3)cc2F)CCCN1c1cnc(C(N)=O)c(Nc2ccc(C3(C)CCN(C4CCCC4)CC3)cc2)n1 [Example A-121, 3-{[4-(1-cyclopentyl-4-methylpiperidin-4-yl)phenyl]amino}-5-[(2R,3R)-3-(4-cyclopropyl-2-fluorobenzamido)-2-methylpiperidin-1-yl]pyrazine-2-carboxamide] | ≤ 0.01 µM |
